The values that follow come from patent US20240218344A1, “LIQUID THROMBIN REAGENT” (Instrumentation Laboratory Company, priority 2022, published 2024).

Molecules are shown by their SMILES. Where a name gives a salt, the structure may show the parent alone.

Format in all cases: biochemical
The subject of one data set is factor Xa. As to the kind of experiment: Factor Xa chromogenic assay with guanidine and guanidine derivatives. The settings on record: dilution series in water, 6 nkat/mL factor Xa, substrate S-2732, 405 nm; FIG. 4. As for the experimental part: In this experiment, the effects of guanidine sulfate and the guanidine derivatives: 1-methylguanidine sulfate, 1,1-dimethylguanidine sulfate, 1,1-diethylguanidine, and N-benzyl, N-methylguanidine sulfate were analyzed using a chromogenic assay. A series of dilutions was prepared in water with guanidine or a guanidine derivative of the type described herein. 40 μL of each of the guanidine or guanidine derivatives were mixed for 20 to 60 seconds with 40 μL of 6 nanokatal per milliliter (nkat/mL) factor Xa diluted in 20 mM HEPES, pH 7.5 buffer. After an incubation period of 150 to 180 seconds, 100 μL of the factor Xa chromogenic substrate S-2732 (1.5 mM) was added to each of the guanidine and factor Xa mixtures and was chromogenically measured at 405 nm milli-absorbance per minute (mAbs/min) after a 20 second delay.

The target of data set [1] is bovine thrombin (Bos taurus, UniProt P00735). In words: Stability of liquid thrombin reagent with alkylated guanidine derivatives, clotting assay. As to conditions: 25 mM guanidine derivative, approximately 75 U/mL bovine thrombin, MES pH 6.3, stored at 37° C. for 7 or 14 days; FIG. 5. As to the method: (§1) In the clotting assay, the liquid thrombin reagent was diluted with an aqueous buffer to a final thrombin concentration of within 5 to 15 U/mL of thrombin. Then, 20 to 40 microliters (μL) of the diluted liquid thrombin reagent was mixed with 80 μL of a reaction buffer containing 20 mM HEPES, pH 7.4, containing 150 mM NaCl and 0.5% BSA (bovine serum albumin). After an incubation period of 60 to 90 seconds at 37° C., 80 μL of normal pooled plasma was added to the mixture and the time to clot was determined using a threshold algorithm.
The effects of guanidine derivatives were analyzed using a clotting assay. In this experiment, liquid thrombin reagents containing bovine thrombin were diluted to a final concentration of approximately 75 U/mL thrombin with an aqueous buffer comprising a MES buffer containing 20 mM MES, pH 6.3, and 0.1% ProClin™ 300, with and without 25 mM of 1-methylguanidine (MMG), 25 mM of 1.1-dimethylguanidine (DMG) and 25 mM of 1,1-diethylguanidine (DEG).
Liquid thrombin reagents of the type described herein containing guanidine derivatives, and one without a guanidine derivative, were stored at 37° C. for 0, 7, and 14 days and tested using the clotting assay after mixing with normal pooled plasma.

For data set [2], the system named is bovine thrombin. In words: Stability of liquid thrombin reagent with apixaban, clotting assay. The settings on record: 500 ng/ml apixaban, approximately 100 U/mL bovine thrombin, stored at 45° C. for 0-14 days; FIG. 3. As to the method: In the clotting assay, the liquid thrombin reagent was diluted with an aqueous buffer to a final thrombin concentration of within 5 to 15 U/mL of thrombin. Then, 20 to 40 microliters (μL) of the diluted liquid thrombin reagent was mixed with 80 μL of a reaction buffer containing 20 mM HEPES, pH 7.4, containing 150 mM NaCl and 0.5% BSA (bovine serum albumin). After an incubation period of 60 to 90 seconds at 37° C., 80 μL of normal pooled plasma was added to the mixture and the time to clot was determined using a threshold algorithm. In this experiment, the effects of the direct factor Xa inhibitor apixaban was analyzed using a clotting assay. Liquid thrombin reagent containing low purity grade bovine thrombin was diluted to a final concentration of approximately 100 U/mL thrombin in an aqueous buffer containing 20 mM MES, pH 6.1, 100 mM NaCl, 25 mM sodium acetate, 25 mM sodium lactate, 5 mM CaCl2, 0.5% BSA, and 0.4 g/L NaN3. Apixaban was dissolved in dimethyl sulfoxide (DMSO) and diluted to a final concentration of 500 ng/ml apixaban in a sample of the liquid thrombin reagent. Liquid thrombin reagents with and without apixaban were stored at 45° C. for 0, 2, 4, 7, 10 and 14 days, and tested in quadruplicate by the clotting assay after mixture with normal pooled plasma. […]

Data set [3] concerns thrombin. In words: Alkylated guanidine concentrations for thrombin stability, clotting assay. As to conditions: less than 20 mM DMG, 7 U/mL thrombin, 37° C. for 20 days versus 2 to 8° C.; FIG. 6. As for the experimental part:
as §1
A series of liquid thrombin reagents containing dimethylguanidine (DMG) were analyzed using a clotting assay. A series of liquid thrombin reagents containing 7 U/mL liquid thrombin were prepared in an aqueous buffer containing 20 mM MES, pH 6.3, 0.1% ProClin™ 300, and a final concentration of 5, 10, 15, 20, 25, or 30 mM DMG. The resulting liquid thrombin reagents were stored at 37° C for 20 days, and the remaining thrombin activity was compared to the liquid thrombin reagent containing the same concentration of guanidine derivative stored at 2 to 8° C. for 20 days.

Data set [4] has as its system thrombin. In words: Thrombin concentrations for liquid thrombin reagent stability, clotting assay. The settings on record: 30 mM DMG, 37° C. for 7 days, FIG. 7. As to the method:
as §1
The effect of guanidine derivatives on a series of thrombin concentrations were analyzed using a clotting assay. A series of liquid thrombin reagents containing 30 mM DMG were prepared by diluting a 100 U/mL thrombin liquid thrombin reagent in MES buffer (containing 30 mM DMG, 20 mM MES, pH 6.3, and 0.1% ProClin™ 300) with MES buffer to final concentrations of 70, 56, 42, 28, 14 or 7 U/mL thrombin. The liquid thrombin reagents were stored at 37° C. for 7 days and tested for thrombin activity using the clotting assay.

Turning to `CCN(CC)C(=N)N` [diethylguanidine sulfate, 1,1-diethylguanidine], the “factor Xa inhibition” value in the data set on factor Xa is reported as “largest extent of factor Xa inhibition”. Also, at bovine thrombin [1], the “thrombin activity after storage” value is reported as “little or no decrease in thrombin activity”.

Take `COc1ccc(-n2nc(C(N)=O)c3c2C(=O)N(c2ccc(N4CCCCC4=O)cc2)CC3)cc1` [apixaban]: the “stability of the liquid thrombin reagent (time-to-clot versus reagent without apixaban)” value in the data set with bovine thrombin [2] is reported as “improves the stability of the liquid thrombin reagent in the long term”.

In the case of `CN(Cc1ccccc1)C(=N)N.O=S(=O)(O)O` [N-benzyl N-methylguanidine sulfate, N-benzyl, N-methylguanidine sulfate], the “factor Xa inhibition” value with factor Xa is given as “reduced factor Xa inhibition”.

Regarding `CN(C)C(=N)N.O=S(=O)(O)O` [dimethylguanidine sulfate, 1,1-dimethylguanidine sulfate], the remaining thrombin activity entry with thrombin [3] is reported as “declined”; in the data set on thrombin [4] (less than about 20 U/mL thrombin), “declined”; in the data set with thrombin [4] (more than about 20 U/mL thrombin), “did not decline significantly”. Besides, in the data set with factor Xa, the “factor Xa inhibition” value is reported as “largest extent of factor Xa inhibition”. In addition, the “thrombin activity after storage” value on bovine thrombin [1] is listed as “little or no decrease in thrombin activity”.

With `N=C(N)N.N=C(N)N.O=S(=O)(O)O` [guanidine sulfate, reference compound], in the data set with factor Xa, the “factor Xa inhibition” value is “least reduction in factor Xa inhibition”.

As to `CNC(=N)N.O=S(=O)(O)O` [1,1 methylguanidine sulfate, 1-methylguanidine sulfate], the “thrombin activity after storage” value on bovine thrombin [1] was “little or no decrease in thrombin activity”.
